According to patent publication US20240041877A1, “DOSAGE REGIME AND METHOD FOR TREATING PULMONARY ARTERIAL HYPERTENSION” (Altavant Sciences GmbH, priority 2019, published 2024):

Experiment: Part 2 (MAD): plasma pharmacokinetics after BID oral KAR5585 for 14 days (incl. accumulation ratios and dose proportionality)
[1] = 200 mg/dose Fed Cohort 3, Day 1 PM, Geo. Mean
[2] = 200 mg/dose Fed Cohort 3, Day 1 PM, Mean
[3] = 200 mg/dose Fed Cohort 3, Day 7 AM, Geo. Mean
[4] = 200 mg/dose Fed Cohort 3, Day 7 AM, Mean
[5] = 200 mg/dose Fed Cohort 3, Day 7 PM, Geo. Mean
[6] = 200 mg/dose Fed Cohort 3, Day 7 PM, Mean
[7] = 200 mg/dose Fed Cohort 3, Day 14, Geo. Mean
[8] = 200 mg/dose Fed Cohort 3, Day 14, Mean
[9] = 400 mg/dose Fasted Cohort 4, Day 1 AM, Geo. Mean
[10] = 400 mg/dose Fasted Cohort 4, Day 1 AM, Mean
[11] = 400 mg/dose Fasted Cohort 4, Day 1 PM, Geo. Mean
[12] = 400 mg/dose Fasted Cohort 4, Day 1 PM, Mean
[13] = 400 mg/dose Fasted Cohort 4, Day 7 AM, Geo. Mean
[14] = 400 mg/dose Fasted Cohort 4, Day 7 AM, Mean
[15] = 400 mg/dose Fasted Cohort 4, Day 7 PM, Geo. Mean
[16] = 400 mg/dose Fasted Cohort 4, Day 7 PM, Mean
[17] = 400 mg/dose Fasted Cohort 4, Day 14, Geo. Mean
[18] = 400 mg/dose Fasted Cohort 4, Day 14, Mean
[19] = power model, PK Day 1 (AM), 100 to 400 mg KAR5585 repeat oral doses, fed
[20] = power model, PK Day 7 (AM), 100 to 400 mg KAR5585 repeat oral doses, fed
[21] = power model, PK Day 14 (AM), 100 to 400 mg KAR5585 repeat oral doses, fed

Description: Food effect was to be evaluated in Part 1, Period 2.
Pharmacokinetic data were to be summarized descriptively.

CCOC(=O)[C@@H]1CC2(CCN(c3cc(O[C@H](c4ccc(Cl)cc4-c4ccccc4)C(F)(F)F)nc(N)n3)CC2)CN1 [KAR5585, (S)-ethyl 8-(2-amino-6-((R)-1-(5-chloro-[1,1′-biphenyl]-2-yl)-2,2,2-trifluoroethoxy)pyrimidin-4-yl)-2,8-diazaspiro[4.5]decane-3-carboxylate] showed a C12 [1] of 9.57 ng/mL, a CL/F [1] of 493 L/h and a Cmax [1] of 85.4 ng/mL. For the same molecule, the Cmax/D [1] was 0.427 (ng/mL)/mg, the t1/2 [1] was 4.24 h and the AUC0-12 [2] was 344 ng·h/mL. For the same molecule, the AUC0-24 [2] was 601 ng·h/mL, the AUC0-24/D [2] was 1.5 (hr*ng/mL)/mg and the “AUC0-∞” value [2] was 417 ng·h/mL. It also gave a C12 [2] of 9.92 ng/mL, a CL/F [2] of 507 L/h and a Cmax [2] of 90.9 ng/mL. For the same molecule, the Cmax/D [2] was 0.455 (ng/mL)/mg, the t1/2 [2] was 4.34 h and the AUC0-12 [3] was 217 ng·h/mL. For the same molecule, the “AUC0-∞” value [3] was 256 ng·h/mL, the C12 [3] was 7.36 ng/mL and the CL/F [3] was 924 L/h. The Cmax [3] was 45.6 ng/mL, the Cmax/D [3] was 0.228 (ng/mL)/mg and the t1/2 [3] was 4.21 h. It also gave an AUC0-12 [4] of 230 ng·h/mL, a C12 [4] of 7.71 ng/mL and a CL/F [4] of 978 L/h. For the same molecule, the Cmax [4] was 48.8 ng/mL, the Cmax/D [4] was 0.244 (ng/mL)/mg and the t1/2 [4] was 4.30 h. The Tmax (200 mg/dose Fed Cohort 3, Day 7 AM, Median) was 3.0 h, the AUC0-12 [5] was 201 ng·h/mL and the AUC0-24 [5] was 414 ng·h/mL. The AUC0-24/D [5] was 1.03 (hr*ng/mL)/mg, the “AUC0-∞” value [5] was 289 ng·h/mL and the C12 [5] was 11.3 ng/mL. For the same molecule, the CL/F [5] was 869 L/h, the Cmax [5] was 39.1 ng/mL and the Cmax/D [5] was 0.195 (ng/mL)/mg. It also gave a t1/2 [5] of 5.58 h, an AUC0-12 [6] of 207 ng·h/mL and an AUC0-24 [6] of 431 ng·h/mL. The AUC0-24/D [6] was 1.08 (hr*ng/mL)/mg, the “AUC0-∞” value [6] was 290 ng·h/mL and the C12 [6] was 12.2 ng/mL. For the same molecule, the CL/F [6] was 890 L/h, the Cmax/D [6] was 0.213 (ng/mL)/mg and the t1/2 [6] was 6.20 h. For the same molecule, the AUC0-24 [7] was 199 ng·h/mL, the AUC0-24/D [7] was 0.993 (hr*ng/mL)/mg and the C24 [7] was “BLQ”. For the same molecule, the CL/F [7] was 1130 L/h, the Cmax/D [7] was 0.217 (ng/mL)/mg and the AUC0-12 [8] was 188 ng·h/mL. The AUC0-24 [8] was 212 ng·h/mL, the AUC0-24/D [8] was 1.06 (hr*ng/mL)/mg and the “AUC0-∞” value [8] was 216 ng·h/mL. For the same molecule, the C24 [8] was “BLQ”, the CL/F [8] was 1200 L/h and the Cmax [8] was 48.8 ng/mL. For the same molecule, the Cmax/D [8] was 0.244 (ng/mL)/mg, the “Mean CL/F, Day 1” value (400 mg KAR5585 BID, fed) was 1730 L/h and the “Mean steady-state CL/F, Day 14” value (400 mg KAR5585 BID, fed) was 1140 L/h. The AUC0-12 [9] was 253 ng·h/mL, the “AUC0-∞” value [9] was 272 ng·h/mL and the C12 [9] was 7.44 ng/mL. The CL/F [9] was 1470 L/h, the Cmax [9] was 74.0 ng/mL and the Cmax/D [9] was 0.185 (ng/mL)/mg. It also gave a t1/2 [9] of 3.00 h, an AUC0-12 [10] of 281 ng·h/mL and a C12 [10] of 7.49 ng/mL. The CL/F [10] was 1730 L/h, the Cmax [10] was 81.8 ng/mL and the Cmax/D [10] was 0.205 (ng/mL)/mg. For the same molecule, the AUC0-12 [11] was 501 ng·h/mL, the AUC0-24/D [11] was 0.950 (hr*ng/mL)/mg and the “AUC0-∞” value [11] was 633 ng·h/mL. For the same molecule, the C12 [11] was 16.6 ng/mL, the CL/F [11] was 632 L/h and the Cmax/D [11] was 0.276 (ng/mL)/mg. For the same molecule, the t1/2 [11] was 4.18 h, the AUC0-12 [12] was 528 ng·h/mL and the AUC0-24/D [12] was 1.01 (hr*ng/mL)/mg. For the same molecule, the “AUC0-∞” value [12] was 657 ng·h/mL, the C12 [12] was 17.1 ng/mL and the CL/F [12] was 662 L/h. For the same molecule, the Cmax [12] was 124 ng/mL, the Cmax/D [12] was 0.310 (ng/mL)/mg and the t1/2 [12] was 4.33 h. The AUC0-12 [13] was 473 ng·h/mL, the “AUC0-∞” value [13] was 577 ng·h/mL and the C12 [13] was 15.1 ng/mL. For the same molecule, the CL/F [13] was 846 L/h, the Cmax [13] was 93.3 ng/mL and the Cmax/D [13] was 0.228 (ng/mL)/mg. The t1/2 [13] was 4.65 h, the AUC0-12 [14] was 483 ng·h/mL and the “AUC0-∞” value [14] was 588 ng·h/mL. The C12 [14] was 15.5 ng/mL, the CL/F [14] was 865 L/h and the Cmax [14] was 95.9 ng/mL. The Cmax/D [14] was 0.240 (ng/mL)/mg, the t1/2 [14] was 4.90 h and the AUC0-12 [15] was 394 ng·h/mL. For the same molecule, the AUC0-24/D [15] was 1.09 (hr*ng/mL)/mg, the “AUC0-∞” value [15] was 534 ng·h/mL and the C12 [15] was 20.1 ng/mL. For the same molecule, the CL/F [15] was 954 L/h, the Cmax [15] was 63.4 ng/mL and the Cmax/D [15] was 0.158 (ng/mL)/mg. The t1/2 [15] was 4.92 h, the AUC0-12 [16] was 404 ng·h/mL and the AUC0-24 [16] was 887 ng·h/mL. For the same molecule, the AUC0-24/D [16] was 1.11 (hr*ng/mL)/mg, the “AUC0-∞” value [16] was 538 ng·h/mL and the C12 [16] was 20.8 ng/mL. For the same molecule, the CL/F [16] was 969 L/h, the Cmax/D [16] was 0.172 (ng/mL)/mg and the t1/2 [16] was 4.93 h. For the same molecule, the AUC0-12 [17] was 359 ng·h/mL, the AUC0-24 [17] was 433 ng·h/mL and the AUC0-24/D [17] was 1.08 (hr*ng/mL)/mg. The “AUC0-∞” value [17] was 465 ng·h/mL, the C12 [17] was 11.0 ng/mL and the CL/F [17] was 1110 L/h. The Cmax [17] was 85.3 ng/mL, the Cmax/D [17] was 0.213 (ng/mL)/mg and the t1/2 [17] was 6.08 h. The AUC0-12 [18] was 366 ng·h/mL, the AUC0-24 [18] was 444 ng·h/mL and the AUC0-24/D [18] was 1.11 (hr*ng/mL)/mg. The CL/F [18] was 1140 L/h, the Cmax/D [18] was 0.222 (ng/mL)/mg and the Tmax (400 mg/dose Fasted Cohort 4, Day 14, Median) was 1.5 h. The “steady-state plasma levels achieved by” value (BID oral KAR5585 for 14 days) was no more than 7 days, the “Dose proportionality analysis, AUC0-12: Intercept estimate” value [19] was 0.969 and the “Dose proportionality analysis, AUC0-inf: Intercept estimate” value [19] was 0.817. For the same molecule, the “Dose proportionality analysis, Cmax: Intercept estimate” value (“Dose proportionality analysis, Cmax” for short) [19] was 0.198, the “Dose proportionality analysis, AUC0-12: Intercept estimate” value [20] was 1.51 and the “Dose proportionality analysis, Cmax” value [20] was 0.688. The “Dose proportionality analysis, AUC0-12: Intercept estimate” value [21] was 2.37 and the “Dose proportionality analysis, Cmax” value [21] was 0.705.
